Source: article PMC6891286, “Towards the Development of an In vivo Chemical Probe for Cyclin G Associated Kinase (GAK)” (Molecules, 2019)

Tests used:
Assay in all cases: KINOMEscan
Format in all cases: binding
Conditions in all cases: 35 at 1 µM; read-out: % inhibition
[1] = biological target: T1, DAPK3 (Homo sapiens, UniProt O43293)
T1 construct: purchased Eurofins DiscoverX (KINOMEscan)
Description: (§1) KinomeScan Assay on 35 was performed as previously described at EuroFins DiscoverX (Fremont, CA, USA).

[2] = biological target: T2, ABL1(E255K)-phosphorylated (Homo sapiens, UniProt P00519, E255K)
T2 construct: purchased Eurofins DiscoverX (KINOMEscan)
Description: as §1

[3] = biological target: T3, SNARK (Homo sapiens, UniProt Q9H093)
T3 construct: purchased Eurofins DiscoverX (KINOMEscan)
Description: as §1

[4] = biological target: T4, EGFR (Homo sapiens, UniProt P00533)
T4 construct: purchased Eurofins DiscoverX (KINOMEscan)
Description: as §1

[5] = biological target: T5, RSK2(Kin.Dom.2-C-terminal) (Homo sapiens, UniProt P51812)
T5 construct: RSK2(Kin.Dom.2-C-terminal); purchased Eurofins DiscoverX (KINOMEscan)
Description: as §1

[6] = biological target: T6, MYO3A (Homo sapiens, UniProt Q8NEV4)
T6 construct: purchased Eurofins DiscoverX (KINOMEscan)
Description: as §1

[7] = biological target: T7, CAMK1G (Homo sapiens, UniProt Q96NX5)
T7 construct: purchased Eurofins DiscoverX (KINOMEscan)
Description: as §1

[8] = biological target: T8, CSNK1D (Homo sapiens, UniProt P48730)
T8 construct: purchased Eurofins DiscoverX (KINOMEscan)
Description: as §1

[9] = biological target: T9, RIPK4 (Homo sapiens, UniProt P57078)
T9 construct: purchased Eurofins DiscoverX (KINOMEscan)
Description: as §1

[10] = biological target: T10, FGFR3 (Homo sapiens, UniProt P22607)
T10 construct: purchased Eurofins DiscoverX (KINOMEscan)
Description: as §1

[11] = biological target: T11, ADCK4 (Homo sapiens, UniProt Q96D53)
T11 construct: purchased Eurofins DiscoverX (KINOMEscan)
Description: as §1

[12] = biological target: T12, EGFR(L858R,T790M) (Homo sapiens, UniProt P00533, L858R/T790M)
T12 construct: purchased Eurofins DiscoverX (KINOMEscan)
Description: as §1

[13] = biological target: T13, MLK3 (Homo sapiens, UniProt Q16584)
T13 construct: purchased Eurofins DiscoverX (KINOMEscan)
Description: as §1

[14] = biological target: T14, PKN2 (Homo sapiens, UniProt Q16513)
T14 construct: purchased Eurofins DiscoverX (KINOMEscan)
Description: as §1

[15] = biological target: T15, BUB1 (Homo sapiens, UniProt O43683)
T15 construct: purchased Eurofins DiscoverX (KINOMEscan)
Description: as §1

[16] = biological target: T16, FGFR2 (Homo sapiens, UniProt P21802)
T16 construct: purchased Eurofins DiscoverX (KINOMEscan)
Description: as §1

[17] = biological target: T17, TYRO3 (Homo sapiens, UniProt Q06418)
T17 construct: purchased Eurofins DiscoverX (KINOMEscan)
Description: as §1

[18] = biological target: T18, MST1 (Homo sapiens, UniProt Q13043)
T18 construct: purchased Eurofins DiscoverX (KINOMEscan)
Description: as §1

[19] = biological target: T19, GRK7 (Homo sapiens, UniProt Q8WTQ7)
T19 construct: purchased Eurofins DiscoverX (KINOMEscan)
Description: as §1

[20] = biological target: T20, CDC2L1 (Homo sapiens, UniProt P21127)
T20 construct: purchased Eurofins DiscoverX (KINOMEscan)
Description: as §1

[21] = biological target: T21, PHKG2 (Homo sapiens, UniProt P15735)
T21 construct: purchased Eurofins DiscoverX (KINOMEscan)
Description: as §1

[22] = biological target: T22, CDKL2 (Homo sapiens, UniProt Q92772)
T22 construct: purchased Eurofins DiscoverX (KINOMEscan)
Description: as §1

[23] = biological target: T23, BMX (Homo sapiens, UniProt P51813)
T23 construct: purchased Eurofins DiscoverX (KINOMEscan)
Description: as §1

[24] = biological target: T24, ANKK1 (Homo sapiens, UniProt Q8NFD2)
T24 construct: purchased Eurofins DiscoverX (KINOMEscan)
Description: as §1

[25] = biological target: T25, TAOK1 (Homo sapiens, UniProt Q7L7X3)
T25 construct: purchased Eurofins DiscoverX (KINOMEscan)
Description: as §1

[26] = biological target: T26, RSK1(Kin.Dom.2-C-terminal) (Homo sapiens, UniProt Q15418)
T26 construct: RSK1(Kin.Dom.2-C-terminal); purchased Eurofins DiscoverX (KINOMEscan)
Description: as §1

[27] = biological target: T27, PIK3CA(H1047Y) (Homo sapiens, UniProt P42336, H1047Y)
T27 construct: purchased Eurofins DiscoverX (KINOMEscan)
Description: as §1

[28] = biological target: T28, MAP3K2 (Homo sapiens, UniProt Q9Y2U5)
T28 construct: purchased Eurofins DiscoverX (KINOMEscan)
Description: as §1

[29] = biological target: T29, LRRK2(G2019S) (Homo sapiens, UniProt Q5S007, G2019S)
T29 construct: purchased Eurofins DiscoverX (KINOMEscan)
Description: as §1

[30] = biological target: T30, TRKA (Homo sapiens, UniProt P04629)
T30 construct: purchased Eurofins DiscoverX (KINOMEscan)
Description: as §1

[31] = biological target: T31, MARK1 (Homo sapiens, UniProt Q9P0L2)
T31 construct: purchased Eurofins DiscoverX (KINOMEscan)
Description: as §1

[32] = biological target: T32, AURKC (Homo sapiens, UniProt Q9UQB9)
T32 construct: purchased Eurofins DiscoverX (KINOMEscan)
Description: as §1

[33] = biological target: T33, CDK11 (Homo sapiens, UniProt Q9BWU1)
T33 construct: purchased Eurofins DiscoverX (KINOMEscan)
Description: as §1

[34] = biological target: T34, AKT3 (Homo sapiens, UniProt Q9Y243)
T34 construct: purchased Eurofins DiscoverX (KINOMEscan)
Description: as §1

[35] = biological target: T35, BMPR2 (Homo sapiens, UniProt Q13873)
T35 construct: purchased Eurofins DiscoverX (KINOMEscan)
Description: as §1

[36] = biological target: T36, MAPKAPK5 (Homo sapiens, UniProt Q8IW41)
T36 construct: purchased Eurofins DiscoverX (KINOMEscan)
Description: as §1

[37] = biological target: T37, CAMK2B (Homo sapiens, UniProt Q13554)
T37 construct: purchased Eurofins DiscoverX (KINOMEscan)
Description: as §1

[38] = biological target: T38, TLK2 (Homo sapiens, UniProt Q86UE8)
T38 construct: purchased Eurofins DiscoverX (KINOMEscan)
Description: as §1

[39] = biological target: T39, PRKCH (Homo sapiens, UniProt P24723)
T39 construct: purchased Eurofins DiscoverX (KINOMEscan)
Description: as §1

[40] = biological target: T40, ABL1(F317I)-nonphosphorylated (Homo sapiens, UniProt P00519, F317I)
T40 construct: purchased Eurofins DiscoverX (KINOMEscan)
Description: as §1

[41] = biological target: T41, BRSK2 (Homo sapiens, UniProt Q8IWQ3)
T41 construct: purchased Eurofins DiscoverX (KINOMEscan)
Description: as §1

[42] = biological target: T42, MEK2 (Homo sapiens, UniProt P36507)
T42 construct: purchased Eurofins DiscoverX (KINOMEscan)
Description: as §1

T38 sequence (Q86UE8 whole entry): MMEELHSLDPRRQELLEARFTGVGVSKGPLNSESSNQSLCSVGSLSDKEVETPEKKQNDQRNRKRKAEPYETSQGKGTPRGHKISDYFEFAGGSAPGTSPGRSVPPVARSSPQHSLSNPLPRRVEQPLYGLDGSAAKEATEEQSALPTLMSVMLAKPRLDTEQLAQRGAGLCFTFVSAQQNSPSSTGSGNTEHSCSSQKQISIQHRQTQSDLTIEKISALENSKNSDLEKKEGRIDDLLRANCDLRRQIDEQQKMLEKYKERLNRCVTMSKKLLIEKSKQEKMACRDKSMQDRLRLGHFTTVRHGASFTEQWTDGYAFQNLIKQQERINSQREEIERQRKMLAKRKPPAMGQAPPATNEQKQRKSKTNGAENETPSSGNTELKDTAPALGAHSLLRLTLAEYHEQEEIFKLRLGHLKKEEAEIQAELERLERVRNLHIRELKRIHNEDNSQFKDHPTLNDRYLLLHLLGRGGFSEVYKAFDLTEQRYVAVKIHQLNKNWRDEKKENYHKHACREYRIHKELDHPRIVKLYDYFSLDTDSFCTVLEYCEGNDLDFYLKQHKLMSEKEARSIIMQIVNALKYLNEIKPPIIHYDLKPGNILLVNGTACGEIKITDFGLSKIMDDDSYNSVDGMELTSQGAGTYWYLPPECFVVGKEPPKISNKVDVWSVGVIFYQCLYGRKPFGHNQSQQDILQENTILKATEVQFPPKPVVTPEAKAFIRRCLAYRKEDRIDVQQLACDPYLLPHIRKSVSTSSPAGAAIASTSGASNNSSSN
T10 sequence (P22607 23-806): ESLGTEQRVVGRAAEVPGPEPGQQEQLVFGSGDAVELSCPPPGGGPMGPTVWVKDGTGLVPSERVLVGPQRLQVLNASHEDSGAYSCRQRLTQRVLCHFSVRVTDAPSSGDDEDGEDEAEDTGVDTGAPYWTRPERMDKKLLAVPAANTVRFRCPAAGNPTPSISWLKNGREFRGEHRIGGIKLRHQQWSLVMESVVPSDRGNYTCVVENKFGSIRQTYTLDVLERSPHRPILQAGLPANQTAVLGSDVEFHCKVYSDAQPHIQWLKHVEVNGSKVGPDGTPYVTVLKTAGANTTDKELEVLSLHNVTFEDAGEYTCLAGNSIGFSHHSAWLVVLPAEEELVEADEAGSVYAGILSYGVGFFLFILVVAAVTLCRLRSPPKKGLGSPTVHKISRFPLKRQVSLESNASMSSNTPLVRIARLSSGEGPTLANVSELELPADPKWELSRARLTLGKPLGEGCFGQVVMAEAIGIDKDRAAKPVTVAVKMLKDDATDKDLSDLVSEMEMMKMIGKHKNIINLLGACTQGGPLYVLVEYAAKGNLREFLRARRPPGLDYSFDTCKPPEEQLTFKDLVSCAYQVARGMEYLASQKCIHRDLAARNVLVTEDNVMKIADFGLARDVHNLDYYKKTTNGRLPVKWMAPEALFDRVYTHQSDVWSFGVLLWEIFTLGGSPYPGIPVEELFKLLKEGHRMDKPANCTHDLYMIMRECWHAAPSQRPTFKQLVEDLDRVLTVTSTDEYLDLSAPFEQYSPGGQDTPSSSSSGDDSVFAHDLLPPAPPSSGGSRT
T6 sequence (Q8NEV4 whole entry): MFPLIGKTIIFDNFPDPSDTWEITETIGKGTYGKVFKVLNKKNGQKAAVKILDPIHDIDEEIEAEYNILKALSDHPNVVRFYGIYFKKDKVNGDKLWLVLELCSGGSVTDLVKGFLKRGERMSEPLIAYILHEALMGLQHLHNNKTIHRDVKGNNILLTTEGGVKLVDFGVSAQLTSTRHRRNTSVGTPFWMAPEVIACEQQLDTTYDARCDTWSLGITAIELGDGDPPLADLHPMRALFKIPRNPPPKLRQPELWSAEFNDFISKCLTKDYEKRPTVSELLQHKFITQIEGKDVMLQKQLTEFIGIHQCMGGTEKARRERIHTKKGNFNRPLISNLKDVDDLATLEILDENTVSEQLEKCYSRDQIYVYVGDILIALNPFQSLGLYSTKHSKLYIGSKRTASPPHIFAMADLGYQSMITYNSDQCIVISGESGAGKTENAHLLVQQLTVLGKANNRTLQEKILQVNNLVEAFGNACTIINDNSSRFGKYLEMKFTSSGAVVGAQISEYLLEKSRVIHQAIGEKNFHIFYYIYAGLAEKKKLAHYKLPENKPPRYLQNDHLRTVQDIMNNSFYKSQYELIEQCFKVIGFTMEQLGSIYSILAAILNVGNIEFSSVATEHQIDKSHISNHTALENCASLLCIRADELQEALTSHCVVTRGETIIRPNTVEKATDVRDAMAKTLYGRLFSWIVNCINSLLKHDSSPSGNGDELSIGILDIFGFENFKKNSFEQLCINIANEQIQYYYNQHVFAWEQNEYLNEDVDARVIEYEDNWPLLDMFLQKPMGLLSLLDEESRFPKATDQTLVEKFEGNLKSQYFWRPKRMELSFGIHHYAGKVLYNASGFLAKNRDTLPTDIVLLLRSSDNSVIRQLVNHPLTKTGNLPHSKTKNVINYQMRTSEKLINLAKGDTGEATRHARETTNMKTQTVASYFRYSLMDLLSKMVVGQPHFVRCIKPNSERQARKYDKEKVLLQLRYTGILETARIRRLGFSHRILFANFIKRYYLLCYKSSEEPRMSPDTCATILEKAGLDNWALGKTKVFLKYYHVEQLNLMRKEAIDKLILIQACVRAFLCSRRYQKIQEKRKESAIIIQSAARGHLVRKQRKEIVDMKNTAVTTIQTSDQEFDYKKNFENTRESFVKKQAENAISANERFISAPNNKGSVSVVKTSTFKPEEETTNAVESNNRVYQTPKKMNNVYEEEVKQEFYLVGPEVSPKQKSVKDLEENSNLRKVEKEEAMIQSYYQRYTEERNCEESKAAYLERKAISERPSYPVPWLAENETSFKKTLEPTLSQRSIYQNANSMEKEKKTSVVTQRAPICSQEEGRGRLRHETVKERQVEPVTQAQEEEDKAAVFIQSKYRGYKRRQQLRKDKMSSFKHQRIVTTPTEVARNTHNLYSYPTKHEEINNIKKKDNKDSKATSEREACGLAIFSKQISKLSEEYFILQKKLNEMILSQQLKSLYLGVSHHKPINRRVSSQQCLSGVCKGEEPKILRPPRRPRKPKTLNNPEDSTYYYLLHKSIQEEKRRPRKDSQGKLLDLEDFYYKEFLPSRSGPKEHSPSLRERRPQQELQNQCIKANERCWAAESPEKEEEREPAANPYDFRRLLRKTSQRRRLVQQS
T3 sequence (Q9H093 whole entry): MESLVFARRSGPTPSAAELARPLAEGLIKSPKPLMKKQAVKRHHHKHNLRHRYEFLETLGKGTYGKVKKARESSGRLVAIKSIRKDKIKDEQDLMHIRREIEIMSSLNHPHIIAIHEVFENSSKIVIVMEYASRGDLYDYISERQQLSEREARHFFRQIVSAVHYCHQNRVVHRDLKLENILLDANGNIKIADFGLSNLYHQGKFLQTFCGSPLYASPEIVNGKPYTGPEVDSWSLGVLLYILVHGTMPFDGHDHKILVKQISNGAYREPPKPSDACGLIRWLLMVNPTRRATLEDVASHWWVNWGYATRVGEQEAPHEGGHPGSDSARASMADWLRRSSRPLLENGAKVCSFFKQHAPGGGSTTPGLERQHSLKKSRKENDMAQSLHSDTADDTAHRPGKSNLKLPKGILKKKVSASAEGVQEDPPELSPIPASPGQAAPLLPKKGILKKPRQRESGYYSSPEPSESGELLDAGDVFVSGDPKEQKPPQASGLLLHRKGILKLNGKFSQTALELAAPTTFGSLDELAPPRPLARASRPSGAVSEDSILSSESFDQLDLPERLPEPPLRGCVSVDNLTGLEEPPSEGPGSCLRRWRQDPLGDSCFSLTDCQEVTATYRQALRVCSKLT
T23 sequence (P51813 whole entry): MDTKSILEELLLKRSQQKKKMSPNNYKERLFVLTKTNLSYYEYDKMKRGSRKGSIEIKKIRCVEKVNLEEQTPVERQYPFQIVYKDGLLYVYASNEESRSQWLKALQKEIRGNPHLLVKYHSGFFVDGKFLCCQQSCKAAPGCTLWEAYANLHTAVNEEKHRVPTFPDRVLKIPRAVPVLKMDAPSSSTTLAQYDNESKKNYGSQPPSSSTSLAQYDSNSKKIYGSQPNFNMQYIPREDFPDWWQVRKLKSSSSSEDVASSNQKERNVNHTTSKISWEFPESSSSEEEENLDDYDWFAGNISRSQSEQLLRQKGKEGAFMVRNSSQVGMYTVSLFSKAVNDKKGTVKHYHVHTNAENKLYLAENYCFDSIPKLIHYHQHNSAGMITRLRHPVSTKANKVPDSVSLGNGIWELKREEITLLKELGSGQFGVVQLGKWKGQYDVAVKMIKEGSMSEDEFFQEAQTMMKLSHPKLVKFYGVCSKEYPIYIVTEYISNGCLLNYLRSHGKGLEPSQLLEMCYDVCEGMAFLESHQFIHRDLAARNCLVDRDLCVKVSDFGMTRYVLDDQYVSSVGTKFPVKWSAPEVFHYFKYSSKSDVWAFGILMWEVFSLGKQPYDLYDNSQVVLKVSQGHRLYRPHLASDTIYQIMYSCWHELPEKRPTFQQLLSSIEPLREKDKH
T34 sequence (Q9Y243 whole entry): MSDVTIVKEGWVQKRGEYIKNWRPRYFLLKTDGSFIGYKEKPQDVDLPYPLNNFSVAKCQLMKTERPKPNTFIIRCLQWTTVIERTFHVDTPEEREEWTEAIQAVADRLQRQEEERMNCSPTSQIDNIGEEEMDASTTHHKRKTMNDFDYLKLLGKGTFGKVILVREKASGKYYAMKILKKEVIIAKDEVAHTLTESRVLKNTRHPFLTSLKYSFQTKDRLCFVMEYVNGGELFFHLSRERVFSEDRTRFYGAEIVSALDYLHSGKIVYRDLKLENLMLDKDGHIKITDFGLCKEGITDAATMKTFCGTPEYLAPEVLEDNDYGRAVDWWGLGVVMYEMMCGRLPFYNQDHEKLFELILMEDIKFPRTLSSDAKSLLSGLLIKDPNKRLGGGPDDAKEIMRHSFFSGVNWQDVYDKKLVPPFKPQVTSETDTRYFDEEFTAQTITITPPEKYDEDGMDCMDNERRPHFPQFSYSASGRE

## Brc1ccc2nccc(Nc3ccc4cn[nH]c4c3)c2c1 [Compound 35, 6-Bromo-N-(1H-indazol-6-yl)quinolin-4-amine]
[1]
  activity at 1 µM: 88%
[2]
  activity at 1 µM: 44%
[3]
  activity at 1 µM: 100%
[4]
  activity at 1 µM: 100%
[5]
  activity at 1 µM: 100%
[6]
  activity at 1 µM: 100%
[7]
  activity at 1 µM: 100%
[8]
  activity at 1 µM: 94%
[9]
  activity at 1 µM: 100%
[10]
  activity at 1 µM: 100%
[11]
  activity at 1 µM: 100%
[12]
  activity at 1 µM: 98%
[13]
  activity at 1 µM: 100%
[14]
  activity at 1 µM: 99%
[15]
  activity at 1 µM: 93%
[16]
  activity at 1 µM: 100%
[17]
  activity at 1 µM: 99%
[18]
  activity at 1 µM: 100%
[19]
  activity at 1 µM: 100%
[20]
  activity at 1 µM: 100%
[21]
  activity at 1 µM: 95%
[22]
  activity at 1 µM: 100%
[23]
  activity at 1 µM: 100%
[24]
  activity at 1 µM: 100%
[25]
  activity at 1 µM: 95%
[26]
  activity at 1 µM: 57%
[27]
  activity at 1 µM: 100%
[28]
  activity at 1 µM: 100%
[29]
  activity at 1 µM: 73%
[30]
  activity at 1 µM: 100%
[31]
  activity at 1 µM: 100%
[32]
  activity at 1 µM: 100%
[33]
  activity at 1 µM: 80%
[34]
  activity at 1 µM: 100%
[35]
  activity at 1 µM: 100%
[36]
  activity at 1 µM: 100%
[37]
  activity at 1 µM: 100%
[38]
  activity at 1 µM: 100%
[39]
  activity at 1 µM: 100%
[40]
  activity at 1 µM: 77%
[41]
  activity at 1 µM: 100%
[42]
  activity at 1 µM: 50%
